# Earlier results as cited in US10035944B2, “Using synthetic acid compositions as alternatives to conventional acids in the oil and gas industry” (priority 2014, dated 2018).
# Settings: death in 2-3 minutes
smiles,measurement,value
"Cl [Hydrogen chloride gas, Hydrogen chloride]",level at which death can occur,1300-2000 ppm
